From patent US20100068150A1, “Selective Caspase Inhibitors” (The Board of Trustees of the Leland Stanford Junior …, priority 2006, published 2010)

Tests used:
[1] = molecular target: T1, caspase-9 in 293 extracts (Homo sapiens, UniProt P55211); assay: Intrinsic apoptosis assay in 293 extracts, KMB01 labeling of caspase-9; assay type: biochemical
T1 construct: endogenous in cells
Excerpt: To further confirm our assignment of the labeled species we treated samples at various activation times with purified recombinant Bir3 domain of XIAP. This polypeptide specifically binds to and inhibits caspase-9 but not caspase-3 or 7. […] We cannot rule out the possibility that p33 caspase-9 is the result of cleavage by some other protease or itself after it has already been labeled by KMB01 or inhibited by Bir3.
Profiling of caspase activity in 293 extracts that had been treated with AB06 at the same time as cytochrome c/dATP confirmed the selectivity of our inhibitor. […]
To confirm that our inhibitor AB06 was not reducing caspase 9 activity resulting in slow processing of caspase-7 and accumulation of a partially processed intermediate we treated extracts with a range of AB06 concentrations and monitored caspase-9 inhibition at various time points after cytochrome c/dATP addition. […]
Hypotonic 293 or MCF-7 extracts (4.7 μg/μl total protein concentration; 73 μg of total protein per time point) were activated by addition of cytochrome c (100 uM final) and dATP (1 mM final) for a range of times from 0-240 minutes as indicated. […] A portion (13.5 μg total protein) from each time point was analyzed by SDS-PAGE using 10-20% gradient gels followed by blotting for biotin as described above. […]

[2] = tested on: endogenous caspases in 293 cytosolic extracts; assay: Direct labeling of endogenous caspases in apoptotic 293 cytosolic extracts; assay type: binding; details: 10 min after cytochrome c/dATP; bAB06 and bAB13 at 10 nM to 10 μM
Protocol: (a.) Hypotonic 293 cytosolic extracts were induced to undergo intrinsic apoptosis by addition of cytochrome c/dATP. KMB01, bAB06 and bAB13 were added 10 minutes after activation and labeling of caspase active sites was carried out for three minutes. Samples were analyzed by SDS-PAGE followed by biotin blotting using streptavidin-HRP. (b) The identity of individual caspases was confirmed via immunoprecipitation using specific anti-sera for caspases-3, 7 and 9 (also see FIG. 5B for immunoprecipitation of caspases-3 and 7 after KMB01 labeling). Extracts (293) were activated with cytochrome c/dATP for 10 minutes, labeled by addition of indicated probes (100 nM final concentration for bAB06 and bAB13 and 10 μM final concentration for KMB01) and labeled caspases precipitated using specific anti-sera as described in the Methods section. […] Labeling of caspases was monitored by SDS-PAGE followed by biotin blotting with streptavidin-HRP. […]
Selective labeling of endogenous caspases in cell extracts and live cells with active site probes was carried out as follows: Hypotonic 293 cytosolic extracts were induced to undergo intrinsic apoptosis by addition of cytochrome c/dATP. […] Samples were analyzed by SDS-PAGE followed by biotin blotting using streptavidin-HRP. […] Labeling of caspases was monitored by SDS-PAGE followed by biotin blotting with streptavidin-HRP. […]

T1 sequence (P55211 1-315 limits assumed): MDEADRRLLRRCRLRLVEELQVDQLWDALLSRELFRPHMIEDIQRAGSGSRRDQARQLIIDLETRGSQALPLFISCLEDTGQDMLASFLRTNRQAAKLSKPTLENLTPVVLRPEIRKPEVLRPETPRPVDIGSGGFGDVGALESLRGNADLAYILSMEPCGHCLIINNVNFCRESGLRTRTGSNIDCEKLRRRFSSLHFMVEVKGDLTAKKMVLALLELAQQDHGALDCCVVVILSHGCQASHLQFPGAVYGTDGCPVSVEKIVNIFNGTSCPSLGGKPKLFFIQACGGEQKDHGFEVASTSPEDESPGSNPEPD
T1 sequence (P55211 331-416 limits assumed): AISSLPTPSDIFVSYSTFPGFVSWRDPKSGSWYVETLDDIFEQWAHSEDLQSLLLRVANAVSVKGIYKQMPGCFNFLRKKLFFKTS
T1 sequence (O14727 whole entry partner): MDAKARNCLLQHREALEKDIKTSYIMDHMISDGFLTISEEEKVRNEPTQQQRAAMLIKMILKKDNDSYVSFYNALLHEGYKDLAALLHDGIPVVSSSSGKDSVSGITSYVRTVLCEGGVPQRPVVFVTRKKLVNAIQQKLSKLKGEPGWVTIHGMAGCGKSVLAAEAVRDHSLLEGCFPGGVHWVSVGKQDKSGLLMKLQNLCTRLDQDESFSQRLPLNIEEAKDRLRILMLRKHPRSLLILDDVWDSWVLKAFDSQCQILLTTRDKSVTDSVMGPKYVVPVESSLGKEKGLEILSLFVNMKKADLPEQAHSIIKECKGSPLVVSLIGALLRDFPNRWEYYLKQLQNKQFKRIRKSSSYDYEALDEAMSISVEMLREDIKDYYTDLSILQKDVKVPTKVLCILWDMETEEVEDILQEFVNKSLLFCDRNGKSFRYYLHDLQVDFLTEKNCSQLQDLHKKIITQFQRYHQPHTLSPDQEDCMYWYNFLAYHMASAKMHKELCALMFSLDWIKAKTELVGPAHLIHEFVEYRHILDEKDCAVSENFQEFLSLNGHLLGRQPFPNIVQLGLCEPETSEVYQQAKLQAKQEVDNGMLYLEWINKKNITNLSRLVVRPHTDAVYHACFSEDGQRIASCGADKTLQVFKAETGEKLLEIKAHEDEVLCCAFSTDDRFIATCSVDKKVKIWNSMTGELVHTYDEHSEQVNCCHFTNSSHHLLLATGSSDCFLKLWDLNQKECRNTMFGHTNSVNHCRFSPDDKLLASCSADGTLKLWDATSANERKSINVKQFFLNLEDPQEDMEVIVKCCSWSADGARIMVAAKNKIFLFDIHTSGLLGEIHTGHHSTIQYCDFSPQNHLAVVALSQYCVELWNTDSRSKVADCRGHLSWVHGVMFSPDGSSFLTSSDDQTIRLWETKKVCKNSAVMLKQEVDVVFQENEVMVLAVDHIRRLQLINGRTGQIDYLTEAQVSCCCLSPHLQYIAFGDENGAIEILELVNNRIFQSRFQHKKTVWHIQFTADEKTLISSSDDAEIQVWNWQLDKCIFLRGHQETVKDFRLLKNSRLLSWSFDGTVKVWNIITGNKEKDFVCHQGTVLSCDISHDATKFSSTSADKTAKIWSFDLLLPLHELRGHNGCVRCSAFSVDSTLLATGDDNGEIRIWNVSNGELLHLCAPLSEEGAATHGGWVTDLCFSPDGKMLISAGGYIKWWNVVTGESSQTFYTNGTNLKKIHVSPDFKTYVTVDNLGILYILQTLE
T1 sequence (P99999 2-105 partner limits assumed): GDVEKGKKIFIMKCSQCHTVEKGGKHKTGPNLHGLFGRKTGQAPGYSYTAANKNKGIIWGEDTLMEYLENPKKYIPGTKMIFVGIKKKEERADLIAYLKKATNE

Q: For `Cc1cccc(C)c1C(=O)OCC(=O)[C@H](CC(=O)O)NC(=O)[C@@H](NC(=O)[C@H](Cc1ccncc1)NC(=O)[C@H](CC(=O)O)NC(=O)Cc1ccc(O)c([N+](=O)[O-])c1)C(C)C` [AB06, Np-D-3-V-D-DMBA], which “KMB01 labeling of processed forms of caspase-9 and precursor forms of caspase-7” value ([1]; AB06 added at the same time as cytochrome c/dATP) is on record?
A: The value was “unaltered”.

Q: And the “cross reactivity with caspase-9” value ([1]; range of AB06 concentrations, as high as 10 μM for up to 30 minutes)?
A: Its value is “lack of cross reactivity”.

Q: How did the “labeling of endogenous caspases in activated 293 extracts” value [2] turn out when “Bio-EVD-AOMK [KMB01, reference compound]” was run?
A: The value was “labeled a 35 kDa caspase-9 species and the two primary mature forms of caspase3 at 17 and 20 kDa as well the 33 kDa full length N-peptide processed and 20 kDa mature forms of caspase-7”.
